Measured values reported in ChEMBL document CHEMBL5303762, “Data for DCP probe BI-8668” (2023).
Blank lines part the entries; values can stand above or below the compound they belong to.

Tests used:
[1] = target: Muscarinic acetylcholine receptor M5 (Homo sapiens) (UniProt P08912); settings: Compound concentration 10.0 uM
[2] = target: Alpha-2C adrenergic receptor (Homo sapiens) (UniProt P18825); settings: Compound concentration 10.0 uM
[3] = target: Amiloride-sensitive sodium channel, ENaC (Mus musculus) (UniProt Q61180+Q9WU38+Q9WU39); experiment: Inhibition of M-1 water resorption; format: functional, cell-based; settings: M1, concentration not given here
[4] = target: Sodium-dependent noradrenaline transporter (Homo sapiens) (UniProt P23975); settings: Compound concentration 10.0 uM
[5] = target: Muscarinic acetylcholine receptor M3 (Homo sapiens) (UniProt P20309); experiment: M3(H)AGON Eurofins SafetyScreen44 (BI); settings: filed as agonist, Compound concentration 10.0 uM
[6] = target: T1, Alpha-1A adrenergic receptor (Homo sapiens) (UniProt P35348); settings: Compound concentration 10.0 uM
T1 sequence (whole entry): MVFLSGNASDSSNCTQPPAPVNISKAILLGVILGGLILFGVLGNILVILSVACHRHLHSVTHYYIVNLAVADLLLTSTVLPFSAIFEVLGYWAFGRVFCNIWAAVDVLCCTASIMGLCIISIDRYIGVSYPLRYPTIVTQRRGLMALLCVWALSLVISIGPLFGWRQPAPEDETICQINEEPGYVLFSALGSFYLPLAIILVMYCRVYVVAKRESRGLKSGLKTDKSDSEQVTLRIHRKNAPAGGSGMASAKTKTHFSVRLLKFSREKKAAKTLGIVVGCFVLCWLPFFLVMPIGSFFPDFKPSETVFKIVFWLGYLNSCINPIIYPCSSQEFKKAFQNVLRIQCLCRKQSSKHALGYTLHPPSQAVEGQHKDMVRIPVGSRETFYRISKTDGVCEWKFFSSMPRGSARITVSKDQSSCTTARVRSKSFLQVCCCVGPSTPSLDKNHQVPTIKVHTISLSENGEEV

[7] = target: Prostaglandin G/H synthase 2 (Homo sapiens) (UniProt P35354); experiment: COX2_HU Eurofins SafetyScreen44 (BI); settings: Compound concentration 10.0 uM
[8] = target: Sigma intracellular receptor 2 (Homo sapiens) (UniProt Q5BJF2); settings: Compound concentration 10.0 uM
[9] = target: 5-hydroxytryptamine receptor 1D (Homo sapiens) (UniProt P28221); settings: Compound concentration 10.0 uM
[10] = target: Prostaglandin G/H synthase 1 (Homo sapiens) (UniProt P23219); experiment: COX1_HU Eurofins SafetyScreen44 (BI); settings: Compound concentration 10.0 uM
[11] = target: Histamine H3 receptor (Homo sapiens, UniProt Q9Y5N1); experiment: GPCRScan assay: inhibition of H3; parameters: radioligand conc. used [nm] 0.5 – 1.0, parental cells HEK Flp-In
[12] = target: 5-hydroxytryptamine receptor 1B (Rattus norvegicus) (UniProt P28564); experiment: 5HT1B/R Eurofins SafetyScreen44 (BI); settings: Compound concentration 10.0 uM
[13] = target: Beta-3 adrenergic receptor (Homo sapiens) (UniProt P13945); settings: Compound concentration 10.0 uM
[14] = target: Sodium-dependent dopamine transporter (Homo sapiens) (UniProt Q01959); settings: Compound concentration 10.0 uM
[15] = target: Sodium-dependent serotonin transporter (Homo sapiens) (UniProt P31645); settings: Compound concentration 10.0 uM
[16] = target: D(3) dopamine receptor (Homo sapiens) (UniProt P35462); settings: Compound concentration 10.0 uM
[17] = target: 5-hydroxytryptamine receptor 2B (Homo sapiens) (UniProt P41595); settings: Compound concentration 10.0 uM
[18] = target: D(1B) dopamine receptor (Homo sapiens, UniProt P21918); experiment: GPCRScan assay: inhibition of D5; parameters: radioligand conc. used [nm] 2.0 – 3.0, parental cells HEKT
[19] = target: D(4) dopamine receptor (Homo sapiens) (UniProt P21917); settings: Compound concentration 10.0 uM
[20] = target: T2, 5-hydroxytryptamine receptor 1A (Homo sapiens) (UniProt P08908); settings: Compound concentration 10.0 uM
T2 sequence (whole entry): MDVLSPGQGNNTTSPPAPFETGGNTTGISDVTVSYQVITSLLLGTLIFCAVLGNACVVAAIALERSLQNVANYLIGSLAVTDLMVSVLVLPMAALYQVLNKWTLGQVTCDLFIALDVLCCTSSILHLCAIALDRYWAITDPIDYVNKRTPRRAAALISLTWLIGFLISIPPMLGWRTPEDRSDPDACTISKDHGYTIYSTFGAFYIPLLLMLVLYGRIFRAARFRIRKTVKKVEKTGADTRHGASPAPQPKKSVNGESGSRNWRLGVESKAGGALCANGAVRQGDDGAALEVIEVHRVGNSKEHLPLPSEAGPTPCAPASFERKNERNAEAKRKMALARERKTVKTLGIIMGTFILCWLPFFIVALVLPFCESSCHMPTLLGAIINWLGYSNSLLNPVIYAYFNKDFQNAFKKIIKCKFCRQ

[21] = target: Muscarinic acetylcholine receptor M4 (Homo sapiens) (UniProt P08173); settings: Compound concentration 10.0 uM
[22] = target: Delta-type opioid receptor (Homo sapiens) (UniProt P41143); settings: Compound concentration 10.0 uM
[23] = target: Cannabinoid receptor 1 (Homo sapiens) (UniProt P21554); experiment: CB1/CENTR/H Eurofins SafetyScreen44 (BI); settings: Compound concentration 10.0 uM
[24] = target: 5-hydroxytryptamine receptor 2A (Homo sapiens) (UniProt P28223); settings: Compound concentration 10.0 uM
[25] = target: Prostaglandin G/H synthase 2 (Homo sapiens) (UniProt P35354); experiment: COX-2 Eurofins SafetyScreen44 (BI); settings: Compound concentration 10.0 uM
[26] = target: Kappa-type opioid receptor (Homo sapiens) (UniProt P41145); experiment: KAPPA(KOP)_HU Eurofins SafetyScreen44 (BI); settings: Compound concentration 10.0 uM
[27] = target: 5-hydroxytryptamine receptor 1B (Homo sapiens) (UniProt P28222); experiment: 5HT1B(H) Eurofins SafetyScreen44 (BI); settings: filed as antagonist, Compound concentration 10.0 uM

Sequence of Histamine H3 receptor (Q9Y5N1 whole entry): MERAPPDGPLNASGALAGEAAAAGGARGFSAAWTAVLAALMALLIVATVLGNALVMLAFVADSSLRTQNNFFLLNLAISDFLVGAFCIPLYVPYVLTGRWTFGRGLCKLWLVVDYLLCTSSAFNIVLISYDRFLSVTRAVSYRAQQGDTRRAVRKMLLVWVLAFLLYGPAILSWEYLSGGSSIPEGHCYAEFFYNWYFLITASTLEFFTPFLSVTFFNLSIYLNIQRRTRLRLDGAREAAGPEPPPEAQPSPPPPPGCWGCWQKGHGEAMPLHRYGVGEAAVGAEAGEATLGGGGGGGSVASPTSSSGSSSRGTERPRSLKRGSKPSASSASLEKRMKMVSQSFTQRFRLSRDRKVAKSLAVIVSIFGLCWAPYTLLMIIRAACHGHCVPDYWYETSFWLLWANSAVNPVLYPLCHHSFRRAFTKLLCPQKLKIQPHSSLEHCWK
Sequence of D(1B) dopamine receptor (P21918 whole entry): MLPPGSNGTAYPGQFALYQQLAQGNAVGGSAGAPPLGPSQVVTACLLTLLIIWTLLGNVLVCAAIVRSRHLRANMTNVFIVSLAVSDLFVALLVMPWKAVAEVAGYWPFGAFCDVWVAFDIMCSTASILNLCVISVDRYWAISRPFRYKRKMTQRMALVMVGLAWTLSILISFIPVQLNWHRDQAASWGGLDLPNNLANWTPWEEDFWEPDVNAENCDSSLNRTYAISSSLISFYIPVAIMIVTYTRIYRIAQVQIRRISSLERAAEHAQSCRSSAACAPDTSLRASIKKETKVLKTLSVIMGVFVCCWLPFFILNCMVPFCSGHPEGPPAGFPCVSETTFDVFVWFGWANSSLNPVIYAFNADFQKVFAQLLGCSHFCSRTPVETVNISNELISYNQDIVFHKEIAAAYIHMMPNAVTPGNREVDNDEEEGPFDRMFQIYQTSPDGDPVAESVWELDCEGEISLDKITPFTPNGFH
Sequence of Alpha-2C adrenergic receptor (Homo sapiens) (P18825 whole entry): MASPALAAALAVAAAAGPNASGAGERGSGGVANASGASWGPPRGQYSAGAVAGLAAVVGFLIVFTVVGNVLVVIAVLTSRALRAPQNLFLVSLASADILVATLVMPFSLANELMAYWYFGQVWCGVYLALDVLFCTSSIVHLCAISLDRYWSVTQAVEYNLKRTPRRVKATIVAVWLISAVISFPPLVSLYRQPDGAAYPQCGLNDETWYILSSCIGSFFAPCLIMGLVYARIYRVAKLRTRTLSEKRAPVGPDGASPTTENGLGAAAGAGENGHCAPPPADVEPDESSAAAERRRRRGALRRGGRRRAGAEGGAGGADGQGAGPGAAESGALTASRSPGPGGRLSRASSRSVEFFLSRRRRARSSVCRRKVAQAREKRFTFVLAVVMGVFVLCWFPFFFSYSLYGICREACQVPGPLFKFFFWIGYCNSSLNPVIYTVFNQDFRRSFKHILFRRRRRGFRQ
Sequence of 5-hydroxytryptamine receptor 2A (Homo sapiens) (P28223 whole entry): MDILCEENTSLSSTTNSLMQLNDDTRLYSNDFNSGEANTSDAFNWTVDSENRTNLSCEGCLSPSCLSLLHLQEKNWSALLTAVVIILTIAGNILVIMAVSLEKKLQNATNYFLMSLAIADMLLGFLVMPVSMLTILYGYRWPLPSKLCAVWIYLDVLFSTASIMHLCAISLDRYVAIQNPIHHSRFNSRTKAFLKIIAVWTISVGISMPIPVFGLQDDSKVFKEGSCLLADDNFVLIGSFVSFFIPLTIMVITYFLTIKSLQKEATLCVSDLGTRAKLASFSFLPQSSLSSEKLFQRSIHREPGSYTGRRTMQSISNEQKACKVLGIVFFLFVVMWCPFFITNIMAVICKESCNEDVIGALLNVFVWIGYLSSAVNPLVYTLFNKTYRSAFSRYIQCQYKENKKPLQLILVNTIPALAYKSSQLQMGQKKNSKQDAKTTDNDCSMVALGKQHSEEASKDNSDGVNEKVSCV
Sequence of Sigma intracellular receptor 2 (Homo sapiens) (Q5BJF2 whole entry): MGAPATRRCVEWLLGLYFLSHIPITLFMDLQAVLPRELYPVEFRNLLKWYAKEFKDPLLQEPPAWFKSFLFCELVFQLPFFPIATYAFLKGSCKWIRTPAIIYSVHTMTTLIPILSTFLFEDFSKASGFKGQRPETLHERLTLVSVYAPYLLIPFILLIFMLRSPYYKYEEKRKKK
Sequence of Muscarinic acetylcholine receptor M5 (Homo sapiens) (P08912 whole entry): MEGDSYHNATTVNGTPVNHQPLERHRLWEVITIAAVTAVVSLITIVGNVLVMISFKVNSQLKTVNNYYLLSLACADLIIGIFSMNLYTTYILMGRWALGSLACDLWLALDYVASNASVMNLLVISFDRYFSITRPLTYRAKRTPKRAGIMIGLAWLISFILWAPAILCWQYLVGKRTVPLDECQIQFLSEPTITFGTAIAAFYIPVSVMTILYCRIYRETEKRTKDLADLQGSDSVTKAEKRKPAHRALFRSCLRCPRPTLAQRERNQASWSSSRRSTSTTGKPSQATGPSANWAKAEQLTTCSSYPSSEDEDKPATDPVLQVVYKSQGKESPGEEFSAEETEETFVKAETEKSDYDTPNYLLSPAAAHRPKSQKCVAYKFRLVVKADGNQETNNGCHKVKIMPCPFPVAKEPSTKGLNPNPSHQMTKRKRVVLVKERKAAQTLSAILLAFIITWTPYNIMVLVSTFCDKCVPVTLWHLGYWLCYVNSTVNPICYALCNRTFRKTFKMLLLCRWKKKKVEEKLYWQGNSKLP
Sequence of D(3) dopamine receptor (Homo sapiens) (P35462 whole entry): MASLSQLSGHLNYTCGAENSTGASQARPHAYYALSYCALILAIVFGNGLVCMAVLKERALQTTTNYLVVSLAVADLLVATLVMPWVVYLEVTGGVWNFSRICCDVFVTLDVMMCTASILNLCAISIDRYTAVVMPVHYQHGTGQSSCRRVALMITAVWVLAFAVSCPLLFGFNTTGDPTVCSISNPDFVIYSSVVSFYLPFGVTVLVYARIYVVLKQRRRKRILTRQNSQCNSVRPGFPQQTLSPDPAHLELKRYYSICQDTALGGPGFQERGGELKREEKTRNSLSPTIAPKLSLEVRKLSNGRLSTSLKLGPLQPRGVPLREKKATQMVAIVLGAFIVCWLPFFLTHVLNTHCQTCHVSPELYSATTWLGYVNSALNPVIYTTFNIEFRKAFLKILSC
Sequence of D(4) dopamine receptor (Homo sapiens) (P21917 whole entry): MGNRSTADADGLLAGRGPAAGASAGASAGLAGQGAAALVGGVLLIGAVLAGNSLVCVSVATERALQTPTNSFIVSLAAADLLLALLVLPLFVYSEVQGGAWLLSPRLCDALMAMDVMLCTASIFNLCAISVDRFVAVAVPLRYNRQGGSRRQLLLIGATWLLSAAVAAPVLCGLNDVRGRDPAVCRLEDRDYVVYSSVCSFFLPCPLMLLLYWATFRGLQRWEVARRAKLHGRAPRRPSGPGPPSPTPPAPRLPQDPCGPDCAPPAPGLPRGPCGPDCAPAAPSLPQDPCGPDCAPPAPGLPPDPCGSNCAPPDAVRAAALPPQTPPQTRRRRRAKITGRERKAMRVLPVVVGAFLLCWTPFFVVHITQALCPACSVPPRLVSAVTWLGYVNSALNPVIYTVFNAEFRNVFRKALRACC
Sequence of Muscarinic acetylcholine receptor M4 (Homo sapiens) (P08173 whole entry): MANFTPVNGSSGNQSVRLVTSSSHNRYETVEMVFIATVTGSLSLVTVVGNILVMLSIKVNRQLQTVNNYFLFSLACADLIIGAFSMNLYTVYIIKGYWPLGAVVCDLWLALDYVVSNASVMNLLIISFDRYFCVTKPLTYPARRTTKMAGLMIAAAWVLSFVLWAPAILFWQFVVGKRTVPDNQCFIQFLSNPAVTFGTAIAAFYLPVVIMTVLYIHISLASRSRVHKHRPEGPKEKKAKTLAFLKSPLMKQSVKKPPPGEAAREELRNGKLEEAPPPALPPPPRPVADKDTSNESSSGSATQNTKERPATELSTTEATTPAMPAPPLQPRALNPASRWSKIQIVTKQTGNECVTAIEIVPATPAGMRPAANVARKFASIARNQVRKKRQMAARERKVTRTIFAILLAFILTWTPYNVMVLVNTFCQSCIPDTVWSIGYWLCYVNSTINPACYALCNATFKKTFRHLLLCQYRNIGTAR
Sequence of Delta-type opioid receptor (Homo sapiens) (P41143 whole entry): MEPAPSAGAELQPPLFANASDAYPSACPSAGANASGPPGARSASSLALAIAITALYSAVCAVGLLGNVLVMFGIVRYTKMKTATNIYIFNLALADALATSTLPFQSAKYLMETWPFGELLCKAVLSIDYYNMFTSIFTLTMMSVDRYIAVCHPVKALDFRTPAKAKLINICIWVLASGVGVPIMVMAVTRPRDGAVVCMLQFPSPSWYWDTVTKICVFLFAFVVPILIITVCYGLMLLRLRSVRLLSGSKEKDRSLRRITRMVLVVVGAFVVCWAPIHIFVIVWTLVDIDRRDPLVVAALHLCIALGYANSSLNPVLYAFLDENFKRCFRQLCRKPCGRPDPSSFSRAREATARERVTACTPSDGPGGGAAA
Sequence of Sodium-dependent dopamine transporter (Homo sapiens) (Q01959 whole entry): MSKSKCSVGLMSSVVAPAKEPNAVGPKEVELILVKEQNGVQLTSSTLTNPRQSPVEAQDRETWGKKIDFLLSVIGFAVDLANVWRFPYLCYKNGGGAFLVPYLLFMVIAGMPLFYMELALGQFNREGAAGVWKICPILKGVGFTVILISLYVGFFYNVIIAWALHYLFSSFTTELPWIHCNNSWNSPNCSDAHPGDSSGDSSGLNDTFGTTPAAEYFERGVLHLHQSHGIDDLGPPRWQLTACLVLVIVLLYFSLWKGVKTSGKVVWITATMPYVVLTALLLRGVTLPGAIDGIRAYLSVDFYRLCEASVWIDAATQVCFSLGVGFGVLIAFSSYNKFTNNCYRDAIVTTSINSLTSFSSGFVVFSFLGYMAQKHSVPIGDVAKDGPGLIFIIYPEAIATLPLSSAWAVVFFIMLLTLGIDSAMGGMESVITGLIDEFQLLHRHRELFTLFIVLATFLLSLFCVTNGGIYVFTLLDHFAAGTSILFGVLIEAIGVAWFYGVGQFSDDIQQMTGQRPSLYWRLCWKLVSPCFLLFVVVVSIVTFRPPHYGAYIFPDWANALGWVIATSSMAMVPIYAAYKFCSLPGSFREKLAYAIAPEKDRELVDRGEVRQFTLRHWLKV

- inhibition [1]: 18.7%
- inhibition [2]: 0.47%
- inhibition [3]: 81%
- inhibition [4]: -7.54%
- inhibition [6]: -1.19%
- inhibition [8]: -0.91%
- inhibition [9]: 22.8%
- Ki ([11]; read-out: Ki): 257 nM
- Ki ([11]; read-out: pKi (converted)): 219 nM
- inhibition [13]: -2.81%
- inhibition [14]: 12.4%
- inhibition [15]: 8.39%
- inhibition [16]: 8.95%
- inhibition [17]: 7.03%
- Ki ([18]; read-out: Ki): 4070 nM
- Ki ([18]; read-out: pKi (converted)): 4070 nM
- inhibition [19]: 7.07%
- inhibition [20]: -4.21%
- inhibition [21]: 7.09%
- inhibition [22]: 3.99%
- inhibition [24]: -1.15%
SMILES: CCn1c(CNC(=O)c2nc(Cl)cnc2N)[n+](CC)c2ccc(C(=O)N(C)CCN(C)C)cc21
- residual activity [5]: 102%
- residual activity [7]: 85%
- residual activity [10]: 106%
- residual activity [12]: 113%
- residual activity [23]: 99%

SMILES: CCn1c(CNC(=O)c2ncc(C)nc2N)[n+](CC)c2ccc(C(=O)N(C)CN(C)C)cc21
- residual activity [25]: 82%
- residual activity [26]: 97%
- residual activity [27]: 94%
